From PubChem BioAssay AID330 (DTP/NCI, 2004)
Where “and” joins values, the source holds several entries; their conditions need not be identical. Equal values may be shown once. Inconclusive results and toxic doses are left out. Rule for the calls: active = survival T/C of 150% or more; inactive = T/C below 125% in these data.

Tested on: P388 leukemia ip, CD2F1 mice, survival T/C
Assay: NCI In Vivo Anticancer Drug Screen. Data for tumor model P388 Leukemia (intraperitoneal) in CD2F1 (CDF1) mice
Details: endpoint: median survival time, higher = longer survival
Summary of the method: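 Mice carrying the transplanted tumor received test compound or vehicle. Survival was recorded in each group, and the value is the treated-group measurement divided by that of the vehicle-treated control group.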

[1] = dose: 50.0 mg/kg/injection, schedule: Q01DX009 (ip), vehicle: saline with Tween-80
[2] = dose: 100.0 mg/kg/injection, schedule: Q01DX009 (ip), vehicle: saline with Tween-80
[3] = dose: 200.0 mg/kg/injection, schedule: Q01DX009 (ip), vehicle: saline with Tween-80
[4] = dose: 60.0 mg/kg/injection, schedule: Q01DX005 (ip), vehicle: saline with Tween-80
[5] = dose: 100.0 mg/kg/injection, schedule: Q04DX003 (ip), vehicle: saline with Tween-80
[6] = dose: 200.0 mg/kg/injection, schedule: Q04DX003 (ip), vehicle: saline with Tween-80
[7] = dose: 120.0 mg/kg/injection, schedule: Q01DX005 (ip), vehicle: saline with Tween-80
[8] = dose: 240.0 mg/kg/injection, schedule: Q01DX005 (ip), vehicle: saline with Tween-80
[9] = dose: 50.0 mg/kg/injection, schedule: Q01DX005 (ip), vehicle: Klucel (hydroxypropylcellulose) (HPC)
[10] = dose: 100.0 mg/kg/injection, schedule: Q01DX005 (ip), vehicle: Klucel (hydroxypropylcellulose) (HPC)
[11] = dose: 200.0 mg/kg/injection, schedule: Q01DX005 (ip), vehicle: Klucel (hydroxypropylcellulose) (HPC)
[12] = dose: 100.0 mg/kg/injection, schedule: Q04DX003 (ip), vehicle: saline
[13] = dose: 200.0 mg/kg/injection, schedule: Q04DX003 (ip), vehicle: saline
[14] = dose: 50.0 mg/kg/injection, schedule: Q01DX009 (ip), vehicle: Klucel (hydroxypropylcellulose) (HPC)
[15] = dose: 100.0 mg/kg/injection, schedule: Q01DX009 (ip), vehicle: Klucel (hydroxypropylcellulose) (HPC)
[16] = dose: 200.0 mg/kg/injection, schedule: Q01DX009 (ip), vehicle: Klucel (hydroxypropylcellulose) (HPC)
[17] = dose: 100.0 mg/kg/injection, schedule: Q01DX009 (ip), vehicle: saline
[18] = dose: 200.0 mg/kg/injection, schedule: Q01DX009 (ip), vehicle: saline
[19] = dose: 50.0 mg/kg/injection, schedule: Q01DX005 (ip), vehicle: saline with Tween-80
[20] = dose: 100.0 mg/kg/injection, schedule: Q01DX005 (ip), vehicle: saline with Tween-80
[21] = dose: 200.0 mg/kg/injection, schedule: Q01DX005 (ip), vehicle: saline with Tween-80

Measured: T/C

CC1C2=C(CCCC2=O)O/C1=N\O (configuration not stated)
inactive: dose: 100.0 mg/kg/injection, schedule: Q04DX003 (ip), vehicle: Klucel (hydroxypropylcellulose) (HPC) 96 % of control | dose: 200.0 mg/kg/injection, schedule: Q04DX003 (ip), vehicle: Klucel (hydroxypropylcellulose) (HPC) 90 % of control | dose: 400.0 mg/kg/injection, schedule: Q04DX003 (ip), vehicle: Klucel (hydroxypropylcellulose) (HPC) 93 % of control

CC1=NN(C(=O)c2ccncc2)C(=O)C1N=Nc1ccc(-c2ccc(N)cc2)cc1 (configuration not stated)
inactive: [1] 97 % of control | [2] 98 % of control | [3] 96 % of control

CCCCCCCC/C=C\CCCCCCCC(=O)OCCCCCCCCCCCCCC
inactive: dose: 12.5 mg/kg/injection, schedule: Q01DX001 (ip), vehicle: other 100 % of control | dose: 25.0 mg/kg/injection, schedule: Q01DX001 (ip), vehicle: other 90 % of control | dose: 50.0 mg/kg/injection, schedule: Q01DX001 (ip), vehicle: other 100 % of control

N#CNc1c2ccccc2nc2ccccc12
inactive: dose: 15.0 mg/kg/injection, schedule: Q01DX005 (ip), vehicle: saline with Tween-80 101 % of control | dose: 30.0 mg/kg/injection, schedule: Q01DX005 (ip), vehicle: saline with Tween-80 97 % of control | [4] 99 % of control and 100 % of control

CC(C)C(Br)C(=O)NCC(=O)O (configuration not stated)
inactive: [5] 100 % of control | [6] 95 % of control | dose: 400.0 mg/kg/injection, schedule: Q04DX003 (ip), vehicle: saline with Tween-80 100 % of control

COc1ccc(C(=O)CCc2cccc(NC(=O)CCCl)c2)cc1
inactive: [4] 105 % of control | [7] 94 % of control | [8] 92 % of control

CCOC(=O)Nc1ccc2nc(N3CCCCC3)sc2c1
inactive: [1] 96 % of control | [2] 90 % of control

CC1(C)N(/N=C/c2ccccc2)C(c2ccccc2)C(c2ccccc2)N1/N=C/c1ccccc1 (configuration not stated)
inactive: [9] 86 % of control | [10] 89 % of control | [11] 87 % of control

Cc1ccc(S(=O)(=O)/N=C/[N-][n+]2cccc(C)c2)cc1
inactive: [12] 104 % of control | [13] 97 % of control | dose: 400.0 mg/kg/injection, schedule: Q04DX003 (ip), vehicle: saline 97 % of control

COC(=O)C(C)CP(=O)(O)OC (configuration not stated)
inactive: dose: 50.0 mg/kg/injection, schedule: Q01DX005 (ip), vehicle: water 97 % of control | dose: 100.0 mg/kg/injection, schedule: Q01DX005 (ip), vehicle: water 98 % of control | dose: 200.0 mg/kg/injection, schedule: Q01DX005 (ip), vehicle: water 114 % of control

Cc1cccnc1Br
inactive: dose: 25.0 mg/kg/injection, schedule: Q01DX009 (ip), vehicle: water 96 % of control | dose: 200.0 mg/kg/injection, schedule: Q01DX009 (ip), vehicle: water 89 % of control

Cc1cc(=O)n2c(nc3cc(C(=O)c4ccccc4)ccc32)s1
inactive: dose: 50.0 mg/kg/injection, schedule: Q01DX001 (ip), vehicle: Klucel (hydroxypropylcellulose) (HPC) 101 % of control | dose: 100.0 mg/kg/injection, schedule: Q01DX001 (ip), vehicle: Klucel (hydroxypropylcellulose) (HPC) 98 % of control | dose: 200.0 mg/kg/injection, schedule: Q01DX001 (ip), vehicle: Klucel (hydroxypropylcellulose) (HPC) 100 % of control

CC(=O)Cc1cc(-c2cc(CC(C)=O)nc(N)n2)nc(N)n1
inactive: dose: 60.0 mg/kg/injection, schedule: Q01DX005 (ip), vehicle: saline 96 % of control | dose: 120.0 mg/kg/injection, schedule: Q01DX005 (ip), vehicle: saline 96 % of control | dose: 240.0 mg/kg/injection, schedule: Q01DX005 (ip), vehicle: saline 97 % of control

O=P1(c2ccccc2)OCC2=C(c3ccccc3)CC2=C1c1ccccc1 (configuration not stated)
inactive: [14] 105 % of control | [15] 103 % of control | [16] 105 % of control

CCCCCC(C)(Cl)CCCCC
inactive: [17] 101 % of control | [18] 106 % of control | dose: 400.0 mg/kg/injection, schedule: Q01DX009 (ip), vehicle: saline 106 % of control

CCC(CN1N=C(c2ccc(Cl)cc2)CCC1=O)C(=O)CCC(=O)O (configuration not stated)
inactive: [9] 104 % of control | [10] 105 % of control | [11] 113 % of control

CCSc1ccc([N+](=O)[O-])c2c(SCC)c3ccccc3nc12
inactive: [19] 92 % of control | [20] 95 % of control | [21] 99 % of control

O=C1c2ccccc2C(=O)C2C3C=CC(CC3)C12 (configuration not stated)
inactive: [9] 105 % of control | [10] 102 % of control | [11] 99 % of control

CC(C)(C)C(=O)CC(=O)C(C)(C)C.[Cu]
inactive: [5] 94 % of control | [6] 101 % of control

NC(Cc1cc(I)c(Oc2cc(I)c(O)c(I)c2)c(I)c1)C(=O)O (configuration not stated)
inactive: dose: 0.25 mg/kg/injection, schedule: Q01DX009 (ip), vehicle: saline 99 % of control | dose: 0.5 mg/kg/injection, schedule: Q01DX009 (ip), vehicle: saline 103 % of control | dose: 1.0 mg/kg/injection, schedule: Q01DX009 (ip), vehicle: saline 99 % of control | dose: 2.0 mg/kg/injection, schedule: Q01DX009 (ip), vehicle: saline 94 % of control | dose: 4.0 mg/kg/injection, schedule: Q01DX009 (ip), vehicle: saline 88 % of control

CN(C)c1ccc(/C=[N+](\C)[O-])cc1
inactive: dose: 50.0 mg/kg/injection, schedule: Q01DX009 (ip), vehicle: saline 91 % of control | [17] 98 % of control | [18] 95 % of control

CC(=O)OCc1ccc(Cl)cc1
inactive: [1] 99 % of control | dose: 50.0 mg/kg/injection, schedule: Q04DX003 (ip), vehicle: saline 100 % of control | [2] 99 % of control | [12] 104 % of control | [3] 114 % of control | [13] 113 % of control | dose: 400.0 mg/kg/injection, schedule: Q01DX009 (ip), vehicle: saline with Tween-80 123 % of control

C[Si](C)(C)O/C=C1\CCc2ccccc2C1=O
inactive: [19] 100 % of control | [20] 101 % of control | [21] 114 % of control

Cc1cccc(C(C)C)c1NC(=O)C(=O)C(C#N)c1ccc(CC#N)cc1 (configuration not stated)
inactive: [4] 99 % of control | [7] 98 % of control

O=S1(=O)CC(c2ccccc2)=NN=C(c2ccccc2)C1
inactive: [14] 93 % of control | [15] 93 % of control | [16] 88 % of control

O=C1C(O)=C(c2ccccc2)C12CSC1(CS2)C(=O)C(O)=C1c1ccccc1 (configuration not stated)
inactive: [4] 100 % of control | [7] 94 % of control | [8] 91 % of control

CCN1Cc2c(/C=C/c3ccccc3)nc3ccc(OC)cc3c2N(c2cccc(Cl)c2)C1
inactive: dose: 25.0 mg/kg/injection, schedule: Q01DX009 (ip), vehicle: Klucel (hydroxypropylcellulose) (HPC) 103 % of control | [14] 94 % of control | [15] 102 % of control | [16] 98 % of control

CN1C(c2ccccc2)=NN=C(C(F)(F)F)N1C
inactive: dose: 100.0 mg/kg/injection, schedule: Q01DX001 (ip), vehicle: distilled water + Tween-80 + alcohol 98 % of control | dose: 200.0 mg/kg/injection, schedule: Q01DX001 (ip), vehicle: distilled water + Tween-80 + alcohol 101 % of control | dose: 400.0 mg/kg/injection, schedule: Q01DX001 (ip), vehicle: distilled water + Tween-80 + alcohol 106 % of control
